Assays:
[1] = system: U2OS; test: (§1) Here: values are normalized to the positive (DMSO; basel flux = defined as 100% suppression) and negative (250nM Torin1; mTOR inhibitor; maximal inducer of autophagy defined as 0% suppression) control compounds and represented as % of ER-phagy suppression. […] The impact of autophagy induction on cells is complex and depends on the affected target. […] Of note, treatment concentrations may be sub-optimal for specific compounds, leading to false negative annotations.; format: functional, Homo sapiens; details: Compound Concentration 1 uM, Culturing Media DMEM, 1 % Penicillin/Streptomycin, 10% Fetal bovin serum Add-On: blasticidin, Screening Media Control DMEM, 10% Fetal bovin serum Add-On: 1 µg/ml Doxycyclin, Screening Media Samples DMEM, 10% Fetal bovin serum Add-On: 1 µg/ml Doxycyclin 250nM Torin1
[2] = system: U2OS; test: as §1; format: functional, Homo sapiens; details: Compound Concentration 1 uM, Culturing Media DMEM, 1 % Penicillin/Streptomycin, 10% Fetal bovin serum Add-On: blasticidin, Screening Media Control DMEM, 10% Fetal bovin serum Add-On: 1 µg/ml Doxycyclin, Screening Media Samples DMEM, 10% Fetal bovin serum Add-On: 1 µg/ml Doxycyclin 250nM Torin1; remark: listed apart in the source

SMILES: CN(C)C(=O)/C(C#N)=C/c1ccc(-c2nc3cnc4[nH]ccc4c3n2C2CCCCC2)o1
- ER-phagy suppression ([1]; Timepoint 12 hours): -7.884%
- ER-phagy suppression ([1]; Timepoint 24 hours): -25.0962%
- ER-phagy suppression ([1]; Timepoint 36 hours): -37.4199%
- ER-phagy suppression ([1]; Timepoint 54 hours): -35.162%
- ER-phagy suppression ([2]; Timepoint 12 hours): -17.3558%
- ER-phagy suppression ([2]; Timepoint 24 hours): -33.4897%
- ER-phagy suppression ([2]; Timepoint 36 hours): -33.7439%
- ER-phagy suppression ([2]; Timepoint 60 hours): -36.9146%

SMILES: O=c1[nH]c2ccc(Cl)cc2c(N[C@@H]2CN3CCC2CC3)c1-c1nc2ccccc2[nH]1
- ER-phagy suppression ([1]; Timepoint 12 hours): 27.312%
- ER-phagy suppression ([1]; Timepoint 24 hours): 66.3141%
- ER-phagy suppression ([1]; Timepoint 36 hours): 83.8118%
- ER-phagy suppression ([1]; Timepoint 54 hours): 95.864%
- ER-phagy suppression ([2]; Timepoint 12 hours): -7.286%
- ER-phagy suppression ([2]; Timepoint 24 hours): 62.247%
- ER-phagy suppression ([2]; Timepoint 36 hours): 75.9097%
- ER-phagy suppression ([2]; Timepoint 60 hours): 86.9183%

SMILES: CC(=O)NCC(=O)N1[C@@H]2CC[C@H]1c1ccc(Nc3ncc(C(F)(F)F)c(NC4CCC4)n3)cc12 [PF-03814735]
- ER-phagy suppression ([1]; Timepoint 12 hours): -4.576%
- ER-phagy suppression ([1]; Timepoint 24 hours): -22.3849%
- ER-phagy suppression ([1]; Timepoint 36 hours): -35.8376%
- ER-phagy suppression ([1]; Timepoint 54 hours): -44.2787%
- ER-phagy suppression ([2]; Timepoint 12 hours): 2.1297%
- ER-phagy suppression ([2]; Timepoint 24 hours): 18.4214%
- ER-phagy suppression ([2]; Timepoint 36 hours): 21.3987%
- ER-phagy suppression ([2]; Timepoint 60 hours): 29.5902%

SMILES: CCOc1cc(N2CCC(O)CC2)ccc1Nc1ncc2c(n1)N(C)c1ccccc1C(=O)N2C
- ER-phagy suppression ([1]; Timepoint 12 hours): -49.4363%
- ER-phagy suppression ([1]; Timepoint 24 hours): -63.2462%
- ER-phagy suppression ([1]; Timepoint 36 hours): -50.7543%
- ER-phagy suppression ([1]; Timepoint 54 hours): -40.8997%
- ER-phagy suppression ([2]; Timepoint 12 hours): 41.1735%
- ER-phagy suppression ([2]; Timepoint 24 hours): 16.7232%
- ER-phagy suppression ([2]; Timepoint 36 hours): 17.4074%
- ER-phagy suppression ([2]; Timepoint 60 hours): 10.8345%

SMILES: O=C(O)c1ccc(-c2c[nH]c3ncc(-c4ccccc4)cc23)cc1C1CCCC1 [GSK-650394]
- ER-phagy suppression ([1]; Timepoint 12 hours): 10.3251%
- ER-phagy suppression ([1]; Timepoint 24 hours): -3.71%
- ER-phagy suppression ([1]; Timepoint 36 hours): -12.9295%
- ER-phagy suppression ([1]; Timepoint 54 hours): -11.6174%
- ER-phagy suppression ([2]; Timepoint 12 hours): -3.529%
- ER-phagy suppression ([2]; Timepoint 24 hours): -12.5069%
- ER-phagy suppression ([2]; Timepoint 36 hours): 3.383%
- ER-phagy suppression ([2]; Timepoint 60 hours): 9.397%

SMILES: CC1=C(C#N)C(c2ccc3[nH]nc(C)c3c2)C(C#N)=C(C)N1 [BAY-474]
- ER-phagy suppression ([1]; Timepoint 12 hours): -13.4419%
- ER-phagy suppression ([1]; Timepoint 24 hours): -18.7669%
- ER-phagy suppression ([1]; Timepoint 36 hours): -19.5327%
- ER-phagy suppression ([1]; Timepoint 54 hours): -10.8689%
- ER-phagy suppression ([2]; Timepoint 12 hours): -4.1838%
- ER-phagy suppression ([2]; Timepoint 24 hours): 7.362%
- ER-phagy suppression ([2]; Timepoint 36 hours): 15.2848%
- ER-phagy suppression ([2]; Timepoint 60 hours): 16.6513%

SMILES: COc1cc(Nc2nc(C)cc(-c3cnn4nc(OC)ccc34)n2)cc(C(F)(F)F)c1
- ER-phagy suppression ([1]; Timepoint 12 hours): -17.1977%
- ER-phagy suppression ([1]; Timepoint 24 hours): -30.7%
- ER-phagy suppression ([1]; Timepoint 36 hours): -31.3882%
- ER-phagy suppression ([1]; Timepoint 54 hours): -33.2663%
- ER-phagy suppression ([2]; Timepoint 12 hours): -18.8933%
- ER-phagy suppression ([2]; Timepoint 24 hours): -32.8701%
- ER-phagy suppression ([2]; Timepoint 36 hours): -15.1622%
- ER-phagy suppression ([2]; Timepoint 60 hours): -1.233%

SMILES: CN1CCN(C(=O)C(C)(C)c2ccc(C(=O)Nc3cn4cc(-c5ccncc5)ccc4n3)cc2)CC1 [T3-CLK]
- ER-phagy suppression ([1]; Timepoint 12 hours): 58.6484%
- ER-phagy suppression ([1]; Timepoint 24 hours): 70.9328%
- ER-phagy suppression ([1]; Timepoint 36 hours): 70.8309%
- ER-phagy suppression ([1]; Timepoint 54 hours): 76.3625%
- ER-phagy suppression ([2]; Timepoint 12 hours): 46.4649%
- ER-phagy suppression ([2]; Timepoint 24 hours): 79.2605%
- ER-phagy suppression ([2]; Timepoint 36 hours): 82.4738%
- ER-phagy suppression ([2]; Timepoint 60 hours): 83.9667%

SMILES: O=C(O)c1ccc2c(c1)nc(Nc1cccc(Cl)c1)c1ccncc12 [SILMITASERTIB]
- ER-phagy suppression ([1]; Timepoint 12 hours): 22.7695%
- ER-phagy suppression ([1]; Timepoint 24 hours): 17.6388%
- ER-phagy suppression ([1]; Timepoint 36 hours): 22.3356%
- ER-phagy suppression ([1]; Timepoint 54 hours): 12.8536%
- ER-phagy suppression ([2]; Timepoint 12 hours): -10.7244%
- ER-phagy suppression ([2]; Timepoint 24 hours): -5.006%
- ER-phagy suppression ([2]; Timepoint 36 hours): 5.808%
- ER-phagy suppression ([2]; Timepoint 60 hours): 11.5407%

SMILES: CCn1c(=O)c(-c2ccc(Cl)cc2Cl)cc2cnc(Nc3ccc(N4CCNCC4)c(F)c3)nc21
- ER-phagy suppression ([1]; Timepoint 12 hours): -49.4743%
- ER-phagy suppression ([1]; Timepoint 24 hours): -41.9787%
- ER-phagy suppression ([1]; Timepoint 36 hours): -21.5083%
- ER-phagy suppression ([1]; Timepoint 54 hours): -6.286%
- ER-phagy suppression ([2]; Timepoint 12 hours): 36.4408%
- ER-phagy suppression ([2]; Timepoint 24 hours): 60.1254%
- ER-phagy suppression ([2]; Timepoint 36 hours): 62.8115%
- ER-phagy suppression ([2]; Timepoint 60 hours): 76.8114%

— ChEMBL document CHEMBL5724696, “Autophagy assay results for EUbOPEN Chemogenomics Library” (2024)
